This is an account of results in US20240254118A1, “PRMT5 INHIBITORS AND USES THEREOF” (Gilead Sciences, Inc., priority 2022, published 2024).

The test system of test [1] is SDMA signal (PRMT5 inhibition) in HCT116 MTAP-deleted cells. Description: Symmetric di-methyl arginine image-based high content screen assay (SDMA assay), HCT116 MTAP-deleted. The test is classed as cell-based. The note with it: SDMA assay; for EC50: Homo sapiens, HCT-116, 72 h, 3 days of treatment, cell line not given, taken as HCT116 MTAP-deleted, read-out: EC50 (SDMA assay); for EC50 selectivity (SDMA assay): taken as HCT116 WT versus MTAP-deleted. The gist of the method:
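Read-out: per-cell mean SDMA immunofluorescence (Alexa Fluor 488 secondary), cells segmented by DAPI on a high-content imager. Compound exposure in HCT116 MTAP-deleted cells lasted until fixation on Day 3; overnight 4° C primary anti-SDMA antibody staining.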

Test [2] has as its system HCT116 MTAP-deleted cells. Put plainly: Cell viability assay (CellTiter-Glo, 7 days), HCT116 MTAP-deleted. The note with it: Homo sapiens, HCT-116, 168 h. Background: In ATP-based viability assays light output follows the ATP content of the culture.
Procedure: Control compounds were analyzed in parallel each time for quality control.
In Brief, on Day −1, a serial dilution of stock compounds in DMSO was performed using BioMek liquid handlers and dispensed using Echo acoustic dispenser into 384 well plates. Both tool compounds and sample compounds were spotted in the same plate for a dose response of PRMT5 inhibitors. Compound plates were stored as frozen until the cells were ready for seeding.
On Day 0, 100 HCT WT or HCT116 MTAP-deleted cells were seeded in compound-containing 384 well plates (50 μl per well) in RPMI 1640 media supplemented with 10% heat inactivated fetal bovine serum, Glutamax and penicillin streptomycin using EL460 liquid dispenser 5 μl cassette (BioTek, part no. 7170011). After equilibrating the plate in room temperature, the cells were incubated for 7 days inside the sealed incubator set at 37 °C with 90% humidity and 5% CO2.
On Day 7, the viability of cells was measured using a CTG assay kit (CellTitre-Glo; Promega cat no. G7573). Shortly, 40 μl per well of luminescent cell viability assay reagent were dispensed using EL460 liquid dispenser 5 μl cassette. CTG luminescence signal was measured using an EnVision plate reader (PerkinElmer) in accordance with manufacturer's instruction. The CC50 values for each compound after 7 days of treatment were calculated using 4 parameter non-linear logistical curve fit.

By EC50 is commonly meant the midpoint of the concentration-response curve. A word on the CC50: it is the concentration at which the toxic effect on the cells reaches its halfway point. Consider `[2H]C1([2H])C([2H])([2H])C1([2H])C(=O)N(C)N(Cc1ccc(C(F)(F)F)cn1)C(=O)c1ccc2nc(N)c3cnn(C)c3c2c1` [Example 305, 4-amino-N′-(cyclopropane-1-carbonyl-d5)-N′,1-dimethyl-N-((5-(trifluoromethyl)pyridin-2-yl)methyl)-1H-pyrazolo[4,3-c]quinoline-8-carbohydrazide], for which, in test [1], the concentration for a half-maximal effect (EC50) was less than 1 nM and the “EC50 selectivity (SDMA assay)” value was found to be 75. The CC50 in test [2] was less than 100 nM.

On to `CC(=O)N(C)N(Cc1cccc2c1OC(F)(F)O2)C(=O)c1ccc2nc(N)c3cnn(C)c3c2c1` [Example 307, N′-acetyl-4-amino-N-((2,2-difluorobenzo[d][1,3]dioxol-4-yl)methyl)-N′,1-dimethyl-1H-pyrazolo[4,3-c]quinoline-8-carbohydrazide], for which, in test [1], the EC50 is less than 1 nM and the “EC50 selectivity (SDMA assay)” value is 359. This compound yielded a CC50 in test [2] of less than 100 nM.

As to `Cn1ncc2c(N)nc3ccc(C(=O)N(Cc4ccc(C(F)(F)F)cn4)NC(=O)C4(F)CC4)cc3c21` [Example 308, 4-amino-N′-(1-fluorocyclopropane-1-carbonyl)-1-methyl-N-((5-(trifluoromethyl)pyridin-2-yl)methyl)-1H-pyrazolo[4,3-c]quinoline-8-carbohydrazide], in test [1], the EC50 was less than 1 nM and the “EC50 selectivity (SDMA assay)” value came to 122. In test [2], this compound gave a CC50 of less than 100 nM.

As to `Cn1ncc2c(N)nc3cc(F)c(C(=O)N(Cc4ccc(C(F)(F)F)cn4)N4C[C@H]5CC[C@@H](C4)O5)cc3c21` [Example 309, 4-amino-N-((1R,5S)-8-oxa-3-azabicyclo[3.2.1]octan-3-yl)-7-fluoro-1-methyl-N-((5-(trifluoromethyl)pyridin-2-yl)methyl)-1H-pyrazolo[4,3-c]quinoline-8-carboxamide], in test [1], the EC50 lay in the range of 1 to 5 nM and the “EC50 selectivity (SDMA assay)” value was determined as 52. The CC50 in test [2] was less than 100 nM.

For the compound `C[C@@H]1CN(N(Cc2ccc(C(F)(F)F)cn2)C(=O)c2ccc3nc(N)c4cnn(C)c4c3c2)C[C@H](C)O1` [Example 310, 4-amino-N-((2S,6R)-2,6-dimethylmorpholino)-1-methyl-N-((5-(trifluoromethyl)pyridin-2-yl)methyl)-1H-pyrazolo[4,3-c]quinoline-8-carboxamide], in test [1], the half-maximal effective concentration (EC50) was less than 1 nM and the “EC50 selectivity (SDMA assay)” value turned out to be 132. In addition, the CC50 in test [2] is less than 100 nM.

Take `CN(C(=O)C1CC1)N(Cc1cc(F)c(-c2cnn(C(F)(F)F)c2)cc1F)C(=O)c1ccc2nc(N)c3cnn(C)c3c2c1` [Example 311, 4-amino-N′-(cyclopropanecarbonyl)-N-(2,5-difluoro-4-(1-(trifluoromethyl)-1H-pyrazol-4-yl)benzyl)-N′,1-dimethyl-1H-pyrazolo[4,3-c]quinoline-8-carbohydrazide]: in test [1], the EC50 lay in the range of 1 to 5 nM and the “EC50 selectivity (SDMA assay)” value is listed as 58. This compound also registered a CC50 in test [2] of less than 100 nM.

As to `Cc1cc(CN(C(=O)c2ccc3nc(N)c4cnn(C)c4c3c2)N(C)C(=O)C2CC2)c(F)cc1-c1cnn(C(F)(F)F)c1` [Example 315, 4-amino-N′-(cyclopropanecarbonyl)-N-(2-fluoro-5-methyl-4-(1-(trifluoromethyl)-1H-pyrazol-4-yl)benzyl)-N′,1-dimethyl-1H-pyrazolo[4,3-c]quinoline-8-carbohydrazide], in test [1], the EC50 is less than 1 nM and the “EC50 selectivity (SDMA assay)” value was 160. The same compound had a CC50 in test [2] of less than 100 nM.

Take `Cc1cc(CN(C(=O)c2ccc3nc(N)c4cnn(C)c4c3c2)N(C)C(=O)C2CC2)c(F)cc1-c1cnn(C(F)F)c1` [Example 318, 4-amino-N′-(cyclopropanecarbonyl)-N-(4-(1-(difluoromethyl)-1H-pyrazol-4-yl)-2-fluoro-5-methylbenzyl)-N′,1-dimethyl-1H-pyrazolo[4,3-c]quinoline-8-carbohydrazide]: in test [1], the concentration giving a half-maximal response (EC50) is less than 1 nM and the “EC50 selectivity (SDMA assay)” value was determined as 130. This compound also yielded a CC50 in test [2] of less than 100 nM.

For the compound `CC(=O)N(C)N(Cc1ccc2nc(C)sc2c1)C(=O)c1ccc2nc(N)c3cnn(C)c3c2c1` [Example 321, N′-acetyl-4-amino-N′,1-dimethyl-N-((2-methylbenzo[d]thiazol-6-yl)methyl)-1H-pyrazolo[4,3-c]quinoline-8-carbohydrazide], in test [1], the EC50 was less than 1 nM and the “EC50 selectivity (SDMA assay)” value is given as 85. This compound also registered a CC50 in test [2] of less than 100 nM.

On to `Cn1ncc2c(N)nc3ccc(C(=O)N(Cc4ccc(C(F)(F)F)cc4F)n4cnc5ccccc54)cc3c21` [Example 322, 4-amino-N-(1H-benzo[d]imidazol-1-yl)-N-(2-fluoro-4-(trifluoromethyl)benzyl)-1-methyl-1H-pyrazolo[4,3-c]quinoline-8-carboxamide], for which, in test [1], the EC50 was less than 1 nM and the “EC50 selectivity (SDMA assay)” value came to 34. In addition, the CC50 in test [2] was less than 100 nM.

As to `CN(C(=O)C1CC1)N(Cc1ccc2nc(C(F)(F)F)sc2c1)C(=O)c1ccc2nc(N)c3cnn(C)c3c2c1` [Example 323, 4-amino-N′-(cyclopropanecarbonyl)-N′,1-dimethyl-N-((2-(trifluoromethyl)benzo[d]thiazol-6-yl)methyl)-1H-pyrazolo[4,3-c]quinoline-8-carbohydrazide], in test [1], the concentration giving a half-maximal response (EC50) lay in the range of 1 to 5 nM and the “EC50 selectivity (SDMA assay)” value is recorded as 44. The compound further yielded a CC50 in test [2] of less than 100 nM.

Consider `CN(C(=O)C1CC1)N(Cc1ccc(C(F)F)cc1F)C(=O)c1ccc2nc(N)c3cnn(C)c3c2c1` [Example 324, 4-amino-N′-(cyclopropanecarbonyl)-N-(4-(difluoromethyl)-2-fluorobenzyl)-N′,1-dimethyl-1H-pyrazolo[4,3-c]quinoline-8-carbohydrazide], for which, in test [1], the EC50 was less than 1 nM and the “EC50 selectivity (SDMA assay)” value is given as 111. Further, the CC50 in test [2] was less than 100 nM.

As for `[2H]C([2H])([2H])N(C(=O)C1CC1)N(Cc1ccc(C(F)(F)F)cn1)C(=O)c1ccc2nc(N)c3cnn(C)c3c2c1` [Example 325, 4-amino-N′-(cyclopropanecarbonyl)-1-methyl-N′-(methyl-d3)-N-((5-(trifluoromethyl)pyridin-2-yl)methyl)-1H-pyrazolo[4,3-c]quinoline-8-carbohydrazide], in test [1], the EC50 is less than 1 nM and the “EC50 selectivity (SDMA assay)” value was found to be 103. In test [2], this compound yielded a CC50 of less than 100 nM.

On to `[2H]C([2H])([2H])N(C(=O)C1CC1)N(Cc1ccc(C(F)(F)F)cn1)C(=O)c1ccc2nc(N)c3cnn(C([2H])([2H])[2H])c3c2c1` [Example 326, 4-amino-N′-(cyclopropanecarbonyl)-N′,1-bis(methyl-d3)-N-((5-(trifluoromethyl)pyridin-2-yl)methyl)-1H-pyrazolo[4,3-c]quinoline-8-carbohydrazide], for which, in test [1], the EC50 is less than 1 nM and the “EC50 selectivity (SDMA assay)” value came to 114. Further, the CC50 in test [2] is less than 100 nM.

Regarding `CC(=O)N(C)N(Cc1ccc2scnc2c1)C(=O)c1ccc2nc(N)c3cnn(C)c3c2c1` [Example 327, N′-acetyl-4-amino-N-(benzo[d]thiazol-5-ylmethyl)-N′,1-dimethyl-1H-pyrazolo[4,3-c]quinoline-8-carbohydrazide], in test [1], the EC50 lay within 1 to 5 nM and the “EC50 selectivity (SDMA assay)” value is on record as 549. Further, in test [2], the CC50 was less than 100 nM.
